Publication PMC5406237 (Chemical research in toxicology, 2010)
Read-outs that look alike come from different tables or passages of the source.

How the values were obtained:
[1] = biological target: CYP2C9 present in the human liver microsomes (Homo sapiens, UniProt P11712); type: biochemical; details: for Ki fold above the Km for S-warfarin: human liver microsomes, marker Km
plasma proteins = details: cited from earlier work
recombinant CYP2C9*1 [2] = biological target: T1, recombinant CYP2C9*1 (Homo sapiens, UniProt P11712); assay: Steady-state inhibition of S-warfarin metabolism by recombinant CYP2C9; type: biochemical
Recombinant CYP2C9 = Recombinant CYP2C9 (Homo sapiens, UniProt P11712); assay: P450-Glo IC50 screen of recombinant CYP2C9 activity; type: biochemical; details: relative to racemic warfarin IC50
CYP2C9 = details: binds and inhibits CYP2C9, not metabolized; cited from earlier work
[3] = biological target: T2, pooled human liver microsomes (Homo sapiens, UniProt P11712)
[4] = biological target: T2, pooled human liver microsomes; details: 7-hydroxywarfarin formation
recombinant CYP2C9*1 [5] = biological target: T1, recombinant CYP2C9*1
recombinant CYP2C9*1 [6] = biological target: T1, recombinant CYP2C9*1; assay: Uninhibited steady-state metabolism of S-warfarin by recombinant CYP2C9; details: S-7-hydroxywarfarin formation
[7] = 2.0 mg/mL microsomal protein, marker 7-hydroxywarfarin formation
[8] = results based on S-6-hydroxywarfarin formation

T2 sequence (P11712 whole entry): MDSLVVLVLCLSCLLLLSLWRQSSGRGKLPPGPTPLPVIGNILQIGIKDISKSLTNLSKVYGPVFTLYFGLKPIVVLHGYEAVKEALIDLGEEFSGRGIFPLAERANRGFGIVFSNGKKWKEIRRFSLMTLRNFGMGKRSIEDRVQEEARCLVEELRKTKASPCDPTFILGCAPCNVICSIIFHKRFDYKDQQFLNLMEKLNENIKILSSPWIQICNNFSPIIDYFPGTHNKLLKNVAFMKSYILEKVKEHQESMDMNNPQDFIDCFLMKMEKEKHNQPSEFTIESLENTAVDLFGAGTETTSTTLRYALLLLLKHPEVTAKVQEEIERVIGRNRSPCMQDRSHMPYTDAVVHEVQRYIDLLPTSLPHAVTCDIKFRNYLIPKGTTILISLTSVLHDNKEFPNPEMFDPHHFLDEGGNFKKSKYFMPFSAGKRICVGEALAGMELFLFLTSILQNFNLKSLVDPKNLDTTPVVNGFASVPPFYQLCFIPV
CYP2C9 present in the human liver microsomes, sequence (P11712 whole entry): as above
Recombinant CYP2C9, sequence (P11712 whole entry): as above

CC(=O)CC(c1ccc(O)cc1)c1c(O)c2ccccc2oc1=O (centres unmarked) [4′OHWAR, 4′-hydroxywarfarin]
mechanism [1, 7]: competitive | Ki fold above the Km for S-warfarin [1]: approximately 3 fold | affinity for human plasma albumin (plasma proteins): comparable to that of warfarin

CC(=O)CC(c1ccccc1)c1c(O)c2cc(O)ccc2oc1=O (centres unmarked) [6OHWAR, 6-hydroxywarfarin]
mechanism [1, 7]: competitive | Ki fold above the Km for S-warfarin [1]: approximately 32 fold | inhibition of S-warfarin metabolism (recombinant CYP2C9*1 [2]; up to 170 μM inhibitor): no inhibition | fold lower affinity for plasma proteins than warfarin (plasma proteins): 3- to 4 fold

CC(=O)CC(c1ccccc1)c1c(O)c2ccc(O)cc2oc1=O (centres unmarked) [7OHWAR, 7-hydroxywarfarin]
Ki fold above the Km for S-warfarin [1]: 8.5 fold | mechanism [1, 8]: competitive | mechanism (recombinant CYP2C9*1 [2]; [8]): competitive | fold lower affinity for plasma proteins than warfarin (plasma proteins): 3- to 4 fold | IC50 fold higher than that observed for warfarin (Recombinant CYP2C9): approximately 8 fold

CC(=O)CC(c1ccccc1)c1c(O)c2cccc(O)c2oc1=O (centres unmarked) [8OHWAR, 8-hydroxywarfarin]
mechanism [1, 7]: competitive | Ki fold above the Km for S-warfarin [1]: approximately 3 fold | fold lower affinity for plasma proteins than warfarin (plasma proteins): 3- to 4 fold

CC(=O)C(O)C(c1ccccc1)c1c(O)c2ccccc2oc1=O (centres unmarked) [10OHWAR, 10-hydroxywarfarin]
Ki fold lower than the observed microsomal Km for S-warfarin [1]: 2.4 fold | mechanism [1, 7]: competitive | affinity fold higher than S-warfarin (recombinant CYP2C9*1 [2]; abstract statement): approximately 3 fold | Ki fold lower than the Km for S-warfarin (recombinant CYP2C9*1 [2]; recombinant CYP2C9): approximately 2.5 fold

CC(=O)C[C@@H](c1ccccc1)c1c(O)c2ccccc2oc1=O [S-warfarin]
Km [3]: 7.5 µM | Km [4]: 5.2 µM | Vmax [4]: 173 pmol/min/mg protein | Km (recombinant CYP2C9*1 [5]): 3.3 µM | Km (recombinant CYP2C9*1 [6]): 2.3 µM | Vmax (recombinant CYP2C9*1 [6]): 68 pmol/min/nmol P450
